Source: US11986471B2, “Compounds and methods of use” (Tango Therapeutics, Inc., priority 2018, dated 2024)

How the values were obtained:
[1] = target: T1, PRMT5 (Homo sapiens, UniProt O14744); assay: PRMT5 IC50 assay in the presence of SAM as cofactor; assay type: biochemical
T1 construct: purchased Viva (custom protein)
In short: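 IC50 values were measured against human PRMT5 with SAM, with MTA, or with no cofactor. Ki was derived from IC50 as Ki=IC50/1.5 with SAM and Ki=IC50/13.5 with MTA, and the Ki(SAM)/Ki(MTA) ratio was then taken.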

[2] = target: T1, PRMT5; assay: PRMT5 IC50 assay with no cofactor; assay type: biochemical
In short: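 Three cofactor conditions are run: SAM-bound, MTA-bound and cofactor-free enzyme. IC50 is read from each; for the SAM and MTA arms it is divided by 1.5 and 13.5 respectively to give Ki.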

[3] = target: T1, PRMT5; assay: PRMT5 IC50 assay in the presence of MTA as cofactor; assay type: biochemical; conditions: for IC50: PRMT5, MTA as cofactor; for SAM/MTA Ratio: ratio between the Ki in the presence of SAM and the Ki in the presence of MTA
In short: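 MTA-dependent versus SAM-dependent inhibition of human PRMT5 was assessed by IC50; conversion factors of 13.5 and 1.5 gave the corresponding Ki.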

[4] = tested on: HAP1 MTAP-intact; assay: SDMA in-cell western assay, HAP1 MTAP-intact cell line; assay type: cell-based; conditions: Homo sapiens
In short: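 Using an MTAP-isogenic HAP1 cell pair, inhibition of SDMA formation is read by in-cell western and expressed as IC50. MTAP-selectivity is assigned where the ratio between lines reaches 3 fold or greater.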

[5] = tested on: HAP1 MTAP-deleted; assay: SDMA in-cell western assay, HAP1 MTAP-deleted cell line; assay type: cell-based; conditions: for IC50: Homo sapiens, HAP1 MTAP-deleted cell line; for MTAP Intact/Deleted Ratio: IC50 ratio HAP1 MTAP-intact / HAP1 MTAP-deleted
In short: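 In-cell western for SDMA marks; MTAP-deleted (null) HAP1 background; values given as IC50.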

T1 sequence (O14744 whole entry): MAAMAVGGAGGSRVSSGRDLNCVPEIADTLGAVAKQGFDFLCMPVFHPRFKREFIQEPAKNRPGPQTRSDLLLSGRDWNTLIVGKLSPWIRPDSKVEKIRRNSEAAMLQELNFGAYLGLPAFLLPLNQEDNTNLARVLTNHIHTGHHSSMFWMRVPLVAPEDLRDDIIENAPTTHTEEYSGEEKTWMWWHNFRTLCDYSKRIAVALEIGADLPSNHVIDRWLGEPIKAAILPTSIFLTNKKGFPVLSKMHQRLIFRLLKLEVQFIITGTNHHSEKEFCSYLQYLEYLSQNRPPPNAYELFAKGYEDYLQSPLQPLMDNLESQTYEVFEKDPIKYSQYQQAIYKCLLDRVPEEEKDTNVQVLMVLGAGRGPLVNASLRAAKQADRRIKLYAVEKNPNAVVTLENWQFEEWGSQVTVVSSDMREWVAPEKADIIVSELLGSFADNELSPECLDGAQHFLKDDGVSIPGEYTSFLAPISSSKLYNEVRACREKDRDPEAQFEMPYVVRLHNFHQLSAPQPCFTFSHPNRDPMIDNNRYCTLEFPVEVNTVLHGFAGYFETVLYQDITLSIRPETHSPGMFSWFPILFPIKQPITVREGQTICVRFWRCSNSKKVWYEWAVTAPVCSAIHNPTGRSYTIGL
T1 sequence (Q9BQA1 whole entry partner): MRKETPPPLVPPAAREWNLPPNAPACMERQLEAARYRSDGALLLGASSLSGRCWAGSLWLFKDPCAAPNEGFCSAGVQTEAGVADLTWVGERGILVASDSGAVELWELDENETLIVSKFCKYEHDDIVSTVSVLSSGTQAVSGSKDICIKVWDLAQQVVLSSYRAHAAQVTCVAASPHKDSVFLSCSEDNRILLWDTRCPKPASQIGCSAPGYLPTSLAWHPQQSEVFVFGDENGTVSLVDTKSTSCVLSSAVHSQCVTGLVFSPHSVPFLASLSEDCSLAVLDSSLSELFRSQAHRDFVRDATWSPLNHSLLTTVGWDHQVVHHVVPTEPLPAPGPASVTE

SMILES	IC50 [1]	IC50 [2]	IC50 [3]	SAM/MTA Ratio [3]	IC50 [4]	IC50 [5]	MTAP Intact/Deleted Ratio [5]
O=C(NC[C@H](O)CN1CCc2cc(OCc3cnco3)ccc2C1)c1ccnc(NC2CN(C(=O)C3CC3)C2)c1 [Compound 563, 2-[[1-(cyclopropanecarbonyl)azetidin-3-yl]amino]-N-[(2S)-2-hydroxy-3-[6-(oxazol-5-ylmethoxy)-3,4-dihydro-1H-isoquinolin-2-yl]propyl]pyridine-4-carboxamide]	50 to 500 nM	500 to 5000 nM	50 to 500 nM	A (a Ki ratio greater than or equal to 10 fold between the Ki in the presence of SAM and the Ki in the presence of MTA)	1000 to 10000 nM	1000 to 10000 nM	C* (an IC50 ratio of less than 3 fold between the IC50 in the HAP1 MTAP-intact cell line and the HAP1 MTAP-deleted cell line)
CC(=O)N1CC(Nc2cc(C(=O)NC[C@H](O)CN3CCc4cc(OCc5ocnc5C)ccc4C3)nc(C(C)(C)C)n2)C1 [Compound 564, (S)-6-((1-acetylazetidin-3-yl)amino)-2-(tert-butyl)-N-(2-hydroxy-3-(6-((4-methyloxazol-5-yl)methoxy)-3,4-dihydroisoquinolin-2(1H)-yl)propyl)pyrimidine-4-carboxamide]	50 to 500 nM	500 to 5000 nM	50 to 500 nM	A (a Ki ratio greater than or equal to 10 fold between the Ki in the presence of SAM and the Ki in the presence of MTA)	1000 to 10000 nM	< 1000 nM	B* (an IC50 ratio greater than or equal to 3 fold but lower than 10 fold between the IC50 in the HAP1 MTAP-intact cell line and the HAP1 MTAP-deleted cell line)
CC(C)N1CCN(c2cc(C(=O)NC[C@H](O)CN3CCc4c(ccc(OCc5cnco5)c4Cl)C3)cc(NC3CCC3)n2)CC1 [Compound 566]	50 to 500 nM	500 to 5000 nM	50 to 500 nM	A (a Ki ratio greater than or equal to 10 fold between the Ki in the presence of SAM and the Ki in the presence of MTA)	≥ 10000 nM	≥ 10000 nM	C* (an IC50 ratio of less than 3 fold between the IC50 in the HAP1 MTAP-intact cell line and the HAP1 MTAP-deleted cell line)
CC(=O)N1CC(Nc2cc(C(=O)NC[C@H](O)CN3CCc4cc(OCc5ocnc5C)ccc4C3)nc(C(C)C)n2)C1 [Compound 568, (S)-6-((1-acetylazetidin-3-yl)amino)-N-(2-hydroxy-3-(6-((4-methyloxazol-5-yl)methoxy)-3,4-dihydroisoquinolin-2(1H)-yl)propyl)-2-isopropylpyrimidine-4-carboxamide]	50 to 500 nM	500 to 5000 nM	50 to 500 nM	A (a Ki ratio greater than or equal to 10 fold between the Ki in the presence of SAM and the Ki in the presence of MTA)	1000 to 10000 nM	< 1000 nM	C* (an IC50 ratio of less than 3 fold between the IC50 in the HAP1 MTAP-intact cell line and the HAP1 MTAP-deleted cell line)
CC(=O)N1CC(Nc2cc(C(=O)NC[C@H](O)CN3CCc4c(ccc(OCc5ocnc5C)c4C)C3)nc(C(C)(C)C)n2)C1 [Compound 569, (S)-6-((1-acetylazetidin-3-yl)amino)-2-(tert-butyl)-N-(2-hydroxy-3-(5-methyl-6-((4-methyloxazol-5-yl)methoxy)-3,4-dihydroisoquinolin-2(1H)-yl)propyl)pyrimidine-4-carboxamide]	50 to 500 nM	≥ 5000 nM	50 to 500 nM	A (a Ki ratio greater than or equal to 10 fold between the Ki in the presence of SAM and the Ki in the presence of MTA)	≥ 10000 nM	1000 to 10000 nM	B* (an IC50 ratio greater than or equal to 3 fold but lower than 10 fold between the IC50 in the HAP1 MTAP-intact cell line and the HAP1 MTAP-deleted cell line)
CCC(=O)N1CCN(c2cc(C(=O)NC[C@H](O)CN3CCc4c(ccc(OCc5cnco5)c4Cl)C3)cc(NC3CCC3)n2)CC1 [Compound 570, (S)—N-(3-(5-chloro-6-(oxazol-5-ylmethoxy)-3N-dihydroisoquinolin-2(1H)-yl)-2-hydroxypropyl)-2-(cyclobutylamino)-6-(4-propionylpiperazin-1-yl)isonicotinamide]	50 to 500 nM	500 to 5000 nM	50 to 500 nM	A (a Ki ratio greater than or equal to 10 fold between the Ki in the presence of SAM and the Ki in the presence of MTA)	≥ 10000 nM	< 1000 nM	A* (an IC50 ratio greater than or equal to 10 fold between the IC50 in the HAP1 MTAP-intact cell line and the HAP1 MTAP-deleted cell line)
O=C(NC[C@H](O)CN1CCc2c(ccc(OCc3cnco3)c2Cl)C1)c1cc(NC2CCC2)nc(N2CCN(C(=O)C3CC3)CC2)c1 [Compound 571, (S)—N-(3-(5-chloro-6-(oxazol-5-ylmethoxy)-3N-dihydroisoquinolin-2(1H)-yl)-2-hydroxypropyl)-2-(cyclobutylamino)-6-(4-(cyclopropanecarbonyl)piperazin-1-yl)isonicotinamide]	50 to 500 nM	500 to 5000 nM	50 to 500 nM	A (a Ki ratio greater than or equal to 10 fold between the Ki in the presence of SAM and the Ki in the presence of MTA)	≥ 10000 nM	< 1000 nM	A* (an IC50 ratio greater than or equal to 10 fold between the IC50 in the HAP1 MTAP-intact cell line and the HAP1 MTAP-deleted cell line)
CO[C@H]1CC[C@H](Nc2cc(C(=O)NC[C@H](O)CN3CCc4c(ccc(OCc5cnco5)c4C)C3)ncn2)CC1 [Compound 572, N-[(2S)-2-hydroxy-3-{5-methyl-6-[(1,3-oxazol-5-yl)methoxy]-1,2,3,4-tetrahydroisoquinolin-2-yl}propyl]-6-{[(1r,4r)-4-methoxycyclohexyl]amino}pyrimidine-4-carboxamide]	500 to 5000 nM	≥ 5000 nM	50 to 500 nM	A (a Ki ratio greater than or equal to 10 fold between the Ki in the presence of SAM and the Ki in the presence of MTA)	≥ 10000 nM	≥ 10000 nM	C* (an IC50 ratio of less than 3 fold between the IC50 in the HAP1 MTAP-intact cell line and the HAP1 MTAP-deleted cell line)
CC(=O)N1CC(Nc2cc(C(=O)NC[C@H](O)CN3CCc4c(ccc(OCc5ocnc5C)c4C)C3)nc(N3CCOCC3)n2)C1 [Compound 574, 6-[(1-acetylazetidin-3-yl)amino]-N-[(2S)-2-hydroxy-3-{5-methyl-6-[(4-methyl-1,3-oxazol-5-yl)methoxy]-1,2,3,4-tetrahydroisoquinolin-2-yl}propyl]-2-(morpholin-4-yl)pyrimidine-4-carboxamide]	50 to 500 nM	≥ 5000 nM	50 to 500 nM	A (a Ki ratio greater than or equal to 10 fold between the Ki in the presence of SAM and the Ki in the presence of MTA)	≥ 10000 nM	1000 to 10000 nM	C* (an IC50 ratio of less than 3 fold between the IC50 in the HAP1 MTAP-intact cell line and the HAP1 MTAP-deleted cell line)
